Measurements published in PubChem BioAssay (NCI).
“And” between values parts separate entries of the source, which are not always exact repeats. Identical values can stand only once.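 Protocol summary: plate cells (96-well), add compound at 5 concentrations, incubate 48 h, interpolate endpoints linearly. GI50 marks 50% less growth. At the TGI there is no net growth.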

Legend:
Assay in all cases: NCI tumour cell line growth inhibition, 48 h
A549 NSCLC = test system: A549 NSCLC
ACHN renal = test system: ACHN renal
CCRF-CEM leukemia = test system: CCRF-CEM leukemia
HT29 colon = test system: HT29 colon
K-562 leukemia = test system: K-562 leukemia
LOX IMVI melanoma = test system: LOX IMVI melanoma
MDA-N = test system: MDA-N
NCI-H226 lung = test system: NCI-H226 lung
OVCAR-4 ovarian = test system: OVCAR-4 ovarian
RXF 393 renal = test system: RXF 393 renal
SR leukemia = test system: SR leukemia
UACC-257 melanoma = test system: UACC-257 melanoma
U251 CNS = test system: U251 CNS
UO-31 renal = test system: UO-31 renal

SMILES	TGI (A549 NSCLC) [µM]	TGI (ACHN renal) [µM]	TGI (CCRF-CEM leukemia) [µM]	TGI (HT29 colon) [µM]	TGI (K-562 leukemia) [µM]	TGI (LOX IMVI melanoma) [µM]	TGI (MDA-N) [µM]	TGI (NCI-H226 lung) [µM]	TGI (OVCAR-4 ovarian) [µM]	TGI (RXF 393 renal)	TGI (SR leukemia) [µM]	TGI (UACC-257 melanoma)	TGI (U251 CNS) [µM]	TGI (UO-31 renal) [µM]	GI50 (CCRF-CEM leukemia) [µM]	GI50 (K-562 leukemia) [µM]	GI50 (OVCAR-4 ovarian) [µM]	GI50 (RXF 393 renal) [µM]	GI50 (UACC-257 melanoma) [µM]
O=[N+]([O-])C(=C/c1cccs1)/C(=C\c1cccs1)[N+](=O)[O-]	9.59	2.68	0.276	6.13	> 100	0.688	2.65	9.84	7.41	0.486 µM	0.987	3.46 µM	–	–	–	–	–	–	–
CC(=O)Nc1ccc(Sc2nnc(NC(C)=O)s2)cc1	> 100	> 100	> 100	–	> 100	–	> 100	–	> 100	–	> 100	> 100 µM	> 100	> 100	–	–	–	–	–
C=CCCCCCCCCC(=O)O	214	–	292	227	426	259	–	394	341	207 µM	–	492 µM	242	162	–	–	–	–	–
CCOC(=O)C(OP(=O)(OCC)OCC)C(F)(F)F (stereo not given)	–	> 100	> 100	> 100	> 100	> 100	> 100	> 100	–	> 100 µM	> 100	> 100 µM	> 100	> 100	–	–	–	–	–
CCN1CCC(O)(c2ccc(O)cc2)C(C(=O)c2ccc(O)cc2)C1 (stereo not given)	–	34	30	64.9	33.8	27.4	–	61.9	68.8	30.7 µM	43.4	32.4 µM	> 100	36	–	–	–	–	–
COc1cccc2c1C(=O)c1c(O)c3c(c(O)c1C2=O)C[C@@](O)(C(=O)CO)CC3OC1CC(NCCCC(OC(C)=O)OC(C)=O)C(O)C(C)O1 (stereo not given in full)	–	–	> 1	–	0.000729	0.000743	–	0.00579	–	0.00328 µM and 0.000813 µM	0.000288	0.00739 µM and 0.00144 µM	–	0.00427	0.000104	< 0.0001	< 0.0001	0.000198	0.000314
